Source: publication PMC12333940, “A prometabolite strategy inhibits cardiometabolic disease in an ApoE^–/– murine model of atherosclerosis” (JCI Insight, 2025)
Where “and” joins values, the source holds several entries; their conditions need not be identical. Identical values can stand only once.

Tests used:
[1] = system: RAW 264.7 macrophages; test: Cell viability assay (MTS); format: cell-based; conditions: at 4 mM and above
Protocol: CellTiter 96 AQueous one Solution Cell Proliferation Assay (MTS) (Promega, G3582) was used according to the manufacturer’s instructions to analyze cytotoxicity of SerBut and NaBut at various concentrations (0.15–12 mM) in RAW 264.7 macrophages. Viability values were normalized to untreated cells (100%) and Triton X-100–treated cells (0%). Since absorbance is directly proportional to the number of living cells in culture, values greater than 100% indicate cell growth compared with controls.

[2] = system: LDL-R; test: Western blot of LDL-R in liver; format: in vivo, mouse
Source text: SerBut water was pH adjusted using 10 M NaOH to a final pH of 7.4. […] After 6 weeks, mice were euthanized. […] The liver was harvested and part was homogenized in tissue protein extraction reagent buffer (Invitrogen, 78510) supplemented with protease inhibitor mini tablets (Thermo Fisher Scientific, PIA32955) for Western blotting and qPCR.

[3] = system: ApoE^–/– mice on an HFD; test: Flow cytometry of the aorta; format: in vivo, mouse; parameters: Aorta Flow CD11b+F480+ / Aorta Flow CD11b+Ly6Chi: unit not given here
Source text: SerBut water was pH adjusted using 10 M NaOH to a final pH of 7.4. […] After 6 weeks, mice were euthanized. […] The liver was harvested and part was homogenized in tissue protein extraction reagent buffer (Invitrogen, 78510) supplemented with protease inhibitor mini tablets (Thermo Fisher Scientific, PIA32955) for Western blotting and qPCR. […] The heart with the ascending and descending aorta to the diaphragm was harvested. The perivascular adipose tissue was carefully removed by microdissection while keeping the adventitia intact. […] After 45 minutes of digestion at 37°C with orbital shaking, aortas were passed through a 70 μm cell strainer, rinsed, pelleted, and plated into a U-bottom 96-well microplate for staining. […] Cells were washed in PBS supplemented with 2% FBS (FACS buffer) and stained for 30 minutes on ice with surface antibodies at a 1:200 dilution in a 1:1 mixture of FACS buffer and Brilliant Stain Buffer (BD Biosciences). Cells were washed with FACS buffer and PBS and fixed with 2% paraformaldehyde on ice for 20 minutes. Cells were washed twice with PBS and resuspended in FACS buffer. Precision count beads (BioLegend) were used to determine absolute cell counts. In this study, antibodies used included those against CD16/CD32 (BioLegend, clone 93, catalog 101302), CCR2 (PE; […] BD Biosciences, clone HL3, catalog 558079, BD Biosciences), […] (APC; […] BD Biosciences, clone 30-F11, catalog 564225), F4/80 (BUV496; BD Biosciences, clone T45-2342, catalog 750644), […].5; BioLegend, clone M5/114.15.2, catalog 107626), Ly-6C (APC-Cy7; […]

[4] = system: ApoE^–/– mice on an HFD; test: CD68 immunohistochemistry and Stary plaque severity grading; format: in vivo, mouse; parameters: STARY Score Average: scale not given here
Protocol: (§1) For 6 weeks, mice were freely administered water, water containing 150 mM SerBut, or water containing an equimolar amount of NaBut. SerBut water was pH adjusted using 10 M NaOH to a final pH of 7.4. […] In concert, mice were fed an HFD with 42% from fat and 0.2% total cholesterol (Envigo, TD-88137) ad libitum. After 6 weeks, mice were euthanized. The lMLNs, ILNs, spleen, heart, and aorta were harvested and processed for flow cytometry analysis ([67]). The liver was harvested and part was homogenized in tissue protein extraction reagent buffer (Invitrogen, 78510) supplemented with protease inhibitor mini tablets (Thermo Fisher Scientific, PIA32955) for Western blotting and qPCR. The remaining liver was fixed with 4% paraformaldehyde and embedded in paraffin for histological analysis.
Frozen aortic root sections were fixed in Zamboni fixative for 10 minutes. After TBS wash, slides were loaded on Leica Bond RX automated stainer. Anti–mouse CD68 antibody (BioLegend, catalog 137001, clone FA-11; 1:4000) was applied to tissue sections for 60 minutes of incubation at room temperature. Following TBS wash, tissue sections were incubated with rabbit anti-rat IgG (Thermo Fisher Scientific, 31219) 30 minutes. The antigen-antibody binding was detected using Polymer-HRP (Leica Biosystems, Bond Polymer Refine Detection kit, DS9800). The slides were coverglassed by autocoverslipper (Tissue-Tek Glas g2). Stary plaque severity grading was done as previously described ([42]). Briefly, each individual mouse was scored if there were at least 2 sections showing all 3 leaflets of the aortic valve that could reasonably be scored. Each leaflet was scored individually per aortic valve and subsequently averaged per section. All sections were averaged per mouse for a final score. Sections were graded blinded. Table 1 explains the scoring scale. Quantitative analysis of plaque features was performed using a classifier in QuPath (v.05.0).

[5] = system: ApoE^–/– mice on an HFD; test: qPCR of liver lipid metabolism genes; format: in vivo, mouse; parameters: srebf1 / srebf2 / fasn / acly / scd1 / acaca / cpt1a: scale not given here; conditions: qPCR; individual mice
Protocol: We then asked whether SerBut’s effects on disease pathology and inflammation may be partially mediated by changes in lipid metabolism by measuring lipogenic and lipid oxidation gene expression by qPCR after treatment for 6 weeks (Supplemental Figure 10, F–L).
as §1

For CCCC(=O)[O-].[Na+] [NaBut, sodium butyrate, reference compound], the “cell viability” value [1] was “significantly reduced cell viability”, the “LDL-R protein levels in liver” value ([2]; 6 weeks) was “significantly suppressed” and the “LDL-R Relative Expression” value ([2]; western Blot quantifiation, individual mice) was 0.9947 and 1.813 and 1.671 and 2.327 and 1.487 and 1.248 and 0.7546 and 0.5275 and 1.539 and 2.451. The “CD45^+ total leukocytes, CD11b^+ monocytes and CCR2^+CD11b^+ monocytes in the aorta” value ([3]; 6 weeks, compared with control groups) was “did not”, the “CD11c^+MHCII^hi dendritic cells, CD11b^+F480^+ macrophages and CD19^+ B cells in the aorta” value ([3]; 6 weeks, compared with water controls) was “significantly reduced” and the “Aorta Flow B cell Count” value ([3]; individual mice) was 315.036 and 240.601 and 72.6582 and 149.307 and 158.07 and 295.152 and 181.142 and 268.448 and 139.825 and 307.858. The “Aorta Flow CD11b+F480+” value ([3]; individual mice) was 25.0597 and 7.5188 and 3.353 and 10.7501 and 8.319 and 26.3753 and 5.998 and 6.129 and 4.994 and 11.9789, the “Aorta Flow CD11b+Ly6Chi” value ([3]; individual mice) was 10.7965 and 20.8384 and 26.2172 and 17.9684 and 39.3795 and 20.0501 and 6.707 and 17.9169 and 5.942 and 82.8937 and the “Aorta Flow T Cell Count” value ([3]; individual mice) was 829.356 and 329.574 and 100.604 and 316.531 and 316.14 and 663.15 and 236.324 and 566.315 and 510.612 and 977.48. The “Aorta Flow CD11b+ Count” value ([3]; individual mice, experiment 2) was 159.148 and 69.3047 and 197.085 and 244.83 and 668.174 and 122.361 and 438.833 and 237.203 and 489.938 and 511.933, the “Aorta Flow CD11b+CCR2+” value ([3]; individual mice, experiment 2) was 22.5564 and 10.0604 and 29.8614 and 43.9743 and 133.132 and 27.5912 and 84.5795 and 57.4282 and 142.549 and 96.6587 and the “Aorta Flow CD45 Count” value ([3]; individual mice, experiment 2) was 1122.81 and 480.662 and 1340.18 and 1250.3 and 2283.35 and 857.726 and 1975.97 and 1910.11 and 5505.51 and 4110.98. The “Aorta Flow CD11c+MHCIIhi” value ([3]; individual mice, cell count) was 16.2907 and 5.589 and 14.3335 and 20.2044 and 75.358 and 13.1958 and 30.6448 and 26.2172 and 32.3431 and 60.8592, the “STARY Score Average” value ([4]; average per mouse, experiments 1 and 2, grades per the 1st table) was 4 and 4.278 and 4.083 and 3.889 and 4.367 and 4.595 and 4.611 and 4.667 and the “CD68+ IHC Quantification CD68 % Lesion” value ([4]; individual mice) was 65.946 % Lesion and 80.0675 % Lesion and 77.46 % Lesion and 69.3112 % Lesion and 58.965 % Lesion and 57.8207 % Lesion and 65.2988 % Lesion. The “CD68+ IHC Quantification CD68+ (um2)” value ([4]; individual mice) was 195963 um2 and 152245 um2 and 221322 um2 and 227819 um2 and 178448 um2 and 177016 um2 and 268099 um2, the “CD68+ IHC Quantification Intima % Lesion” value ([4]; individual mice) was 12.0227 % Lesion and 7.77 % Lesion and 10.3458 % Lesion and 13.4964 % Lesion and 17.8935 % Lesion and 30.3544 % Lesion and 12.0651 % Lesion and the “CD68+ IHC Quantification Intima (um2)” value ([4]; individual mice) was 36578.9 um2 and 15233.4 um2 and 30544.5 um2 and 45695.4 um2 and 53110.1 um2 and 102496 um2 and 50318.2 um2. The “CD68+ IHC Quantification Necrotic Core % Lesion” value ([4]; individual mice) was 21.7224 % Lesion and 11.9211 % Lesion and 11.8215 % Lesion and 16.7081 % Lesion and 22.5501 % Lesion and 9.461 % Lesion and 22.3112 % Lesion, the “CD68+ IHC Quantification Necrotic Core (um2)” value ([4]; individual mice) was 64440.8 um2 and 22667.5 um2 and 33872.5 um2 and 54918.5 um2 and 69955.9 um2 and 28166.5 um2 and 89527.4 um2 and the acaca [5] was 0.754 and 1.434 and 0.565 and 0.348. The acly [5] was 1.514 and 3.195 and 3.181 and 0.636, the cpt1a [5] was 0.594 and 0.912 and 0.54 and 0.529 and the fasn [5] was 1.21 and 3.882 and 0.92 and 0.454. For the same molecule, the scd1 [5] was 1.215 and 2.79 and 1.889 and 0.696, the srebf1 [5] was 0.816 and 1.204 and 0.406 and 0.79 and the srebf2 [5] was 0.731 and 1.208 and 0.837 and 0.717.
